According to US20100035926A1, “PYRAZOLE DERIVATIVES AS NON-STEROIDAL GLUCOCORTICOID RECEPTOR LIGANDS” (priority 2006, published 2010):
Like-named read-outs stand apart in the source and are kept apart here.

Key:
GR [1] = biological target: T1, GR (Homo sapiens, UniProt P04150); assay: GR Functional Assay - NFκB Assay (A549 SPAP cells, TNFα stimulated); format: cell-based; conditions: for Emax: agonists, read-out: average maximum asymptote in the NFkB assay
T1 construct: endogenous in cells; host or cells: A549 (human lung carcinoma, ECACC No. 86012804), stably transfected with reporter plasmids only
T1 sequence (P04150 1-777): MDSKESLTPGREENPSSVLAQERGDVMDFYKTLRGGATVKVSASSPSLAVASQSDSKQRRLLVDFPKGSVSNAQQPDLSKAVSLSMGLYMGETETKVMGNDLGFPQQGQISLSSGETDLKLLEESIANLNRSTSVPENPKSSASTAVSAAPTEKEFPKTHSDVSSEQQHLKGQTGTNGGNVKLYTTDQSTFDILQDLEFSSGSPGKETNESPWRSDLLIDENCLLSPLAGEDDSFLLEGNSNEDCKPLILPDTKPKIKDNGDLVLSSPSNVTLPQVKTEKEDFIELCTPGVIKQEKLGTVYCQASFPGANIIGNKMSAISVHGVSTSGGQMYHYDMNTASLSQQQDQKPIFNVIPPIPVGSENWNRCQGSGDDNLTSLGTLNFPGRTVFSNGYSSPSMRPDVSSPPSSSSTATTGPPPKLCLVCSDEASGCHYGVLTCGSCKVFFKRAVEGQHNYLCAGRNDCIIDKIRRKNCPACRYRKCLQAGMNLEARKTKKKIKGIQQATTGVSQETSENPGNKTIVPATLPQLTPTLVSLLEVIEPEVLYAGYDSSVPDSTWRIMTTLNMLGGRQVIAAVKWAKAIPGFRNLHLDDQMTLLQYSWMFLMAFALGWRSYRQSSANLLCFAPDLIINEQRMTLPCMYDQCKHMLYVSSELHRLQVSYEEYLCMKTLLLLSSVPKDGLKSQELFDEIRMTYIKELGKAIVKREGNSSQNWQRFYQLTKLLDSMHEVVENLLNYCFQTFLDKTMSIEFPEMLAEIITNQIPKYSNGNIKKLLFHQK
Method: Stimulation of the cell line with TNFα results in intracellular signal transduction and ultimately translocation of NFκB into the nucleus. This activates the inserted DNA sequence resulting in transcription of the integrated SPAP gene, which is quantified using a calorimetric assay. […] The stably transfected cell line was grown as a monolayer in DMEM supplemented with FCS-HI (10%), Non-essential amino acids (1%), L-Glutamine (2 mM), Pen/Strep (1%) and Geneticin (50 mg/ml).
A 70% confluent T225 flask of A549 SPAP cells was harvested by centrifugation for 5 mins at 200 g, resuspended in assay buffer (DMEM supplemented with 10% FCS 2×HI, 2 mM L-Glutamine, 1% Pen/Strep and Non essential amino acids) and diluted to 0.16×10^6/ml. 60 μl of cell solution was dispensed to each well of clear Nunc 384-well plates, containing compound at the required concentration. […] Plates were equilibrated to room temperature for 1 hr prior to the addition of 25 μl of pNPP buffer (1M Diethanolamine pH 9.8, 0.5 mM MgCl2, 0.28M NaCl, 2 mg/ml pNPP) to each well of assay plates.

glucocorticoid receptor = biological target: T2, glucocorticoid receptor (Homo sapiens, UniProt P04150); assay: Glucocorticoid Receptor Binding Assay (fluorescence polarisation, displacement of Alexa 555 labelled dexamethasone derivative); conditions: at least once in this assay; read-out: glucocorticoid binding pIC50 (converted)
T2 construct: a partially purified full length glucocorticoid receptor
T2 sequence (P04150 1-777): T1 sequence (P04150 1-777)
Method: Compounds were solvated and diluted in DMSO, and transferred directly into assay plates. Fluorescent dexamethasone and a partially purified full length glucocorticoid receptor were added to the plates, together with buffer components to stabilise the GR protein and incubated at room temperature for 2 hr in the dark. Binding of each compound was assessed by analysing the displacement of fluorescent ligand by measuring the decrease in fluorescence polarisation signal from the mixture.

GR [2] = biological target: T1, GR; assay: GR Agonist Assay - MMTV Assay (A549 MMTV cells, renilla luciferase reporter); format: cell-based; conditions: 6 h, agonists, read-out: average maximum asymptote in the MMTV agonist assay
Method: Stimulation of the cell line with GR agonists results in intracellular signal transduction and ultimately translocation of GR into the nucleus. This activates the inserted DNA sequence resulting in transcription of the integrated luciferase gene, which is quantified using a light emission. The stably transfected cell line was grown as a monolayer in DMEM supplemented with FCS-HI (10%), Non-essential amino acids (1%), L-Glutamine (2 mM), Pen/Strep (1%) and Geneticin (50 mg/ml).
A 90% confluent T175 flask of A549 MMTV cells was harvested by centrifugation for 5 min at 200 g, resuspended in assay buffer (DMEM supplemented with 10% FCS 2×HI, 2 mM Glutamax, Non essential amino acids and 25 mM HEPES) and diluted to 0.1×10^6/ml. 70 μl of cell solution was dispensed to each well of white Nunc 384-well plates, containing compound at the required concentration. […] The plates were covered to protect the reagents from light, and then incubated at room temperature for approximately 15 mins before reading them on a Viewlux.

[3] = at least once, examples listed as agonists in NFkB and MMTV assays, read-out: potency pIC50 in the NFKB assay (converted)
[4] = at least once in the NFkB assay, A549 SPAP cells, read-out: pIC50 in the NFkB assay (converted)

## Nc1c(C(=O)NCC(O)(CN(CCF)C(=O)c2ccccc2C(F)(F)F)C(F)(F)F)cnn1-c1ccc(F)cc1 (racemic) [Example 10 (racemic), 5-amino-1-(4-fluorophenyl)-N-{3,3,3-trifluoro-2-[((2-fluoroethyl){[2-(trifluoromethyl)phenyl]carbonyl}amino)methyl]-2-hydroxypropyl}-1H-pyrazole-4-carboxamide]
GR [1]; A549 SPAP cells
  Emax: ≥ 40%
GR [1]; [3]
  IC50: < 316 nM
Glucocorticoid receptor
  IC50: < 1000 nM
GR [2]
  Emax: ≥ 40%

## Nc1c(C(=O)NCC(O)(CN(CCF)C(=O)c2ccccc2OC(F)F)C(F)(F)F)cnn1-c1ccc(F)cc1 (racemic) [Example 11 (racemic), 5-amino-N-(2-{[({2-[(difluoromethyl)oxy]phenyl}carbonyl) (2-fluoroethyl)amino]methyl}-3,3,3-trifluoro-2-hydroxypropyl)-1-(4-fluorophenyl)-1H-pyrazole-4-carboxamide]
GR [1]; A549 SPAP cells
  Emax: ≥ 40%
GR [1]; [3]
  IC50: < 316 nM
GR [2]
  Emax: ≥ 40%

## CCN(CC(O)(CNC(=O)c1cnn(-c2ccc(F)cc2)c1N)C(F)(F)F)C(=O)c1ccccc1OC(F)F (racemic) [Example 12 (racemic), 5-amino-N-(2-{[({2-[(difluoromethyl)oxy]phenyl}carbonyl) (ethyl)amino]methyl}-3,3,3-trifluoro-2-hydroxypropyl)-1-(4-fluorophenyl)-1H-pyrazole-4-carboxamide]
GR [1]; A549 SPAP cells
  Emax: ≥ 40%
GR [1]; [3]
  IC50: < 316 nM
Glucocorticoid receptor
  IC50: < 1000 nM
GR [2]
  Emax: ≥ 40%

## CCN(CC(O)(CNC(=O)c1cnn(-c2ccc(F)cc2)c1N)C(F)(F)F)C(=O)c1ccccc1C(C)=O (racemic) [Example 13 (racemic), N-(2-{[[(2-acetylphenyl)car-bonyl](ethyl)amino]methyl}-3,3,3-trifluoro-2-hydroxypropyl)-5-amino-1-(4-fluorophenyl)-1H-pyrazole-4-carboxamide]
GR [1]; A549 SPAP cells
  Emax: ≥ 40%
GR [1]; [3]
  IC50: < 316 nM
Glucocorticoid receptor
  IC50: < 1000 nM
GR [2]
  Emax: ≥ 40%

## CCN(CC(O)(CNC(=O)c1cnn(-c2ccc(F)cc2)c1N)C(F)(F)F)C(=O)c1cccc(Cl)c1 (racemic) [Example 17 (racemic), 5-amino-N-(2-{[[(3-chlorophenyl)car-bonyl](ethyl)amino]methyl}-3,3,3-trifluoro-2-hydroxypropyl)-1-(4-fluorophenyl)-1H-pyrazole-4-carboxamide]
GR [1]; A549 SPAP cells
  Emax: ≥ 40%
GR [1]; [4]
  IC50: < 1000 nM
GR [1]; [3]
  IC50: < 316 nM
Glucocorticoid receptor
  IC50: < 1000 nM
GR [2]
  Emax: ≥ 40%

## CCN(CC(O)(CNC(=O)c1cnn(-c2ccc(F)cc2)c1N)C(F)(F)F)C(=O)c1ccc(Cl)cc1 (racemic) [Example 19 (racemic), 5-amino-N-(2-{[[(4-chlorophenyl)car-bonyl](ethyl)amino]methyl}-3,3,3-trifluoro-2-hydroxypropyl)-1-(4-fluorophenyl)-1H-pyrazole-4-carboxamide]
Glucocorticoid receptor
  IC50: < 1000 nM

## CCN(CC(O)(CNC(=O)c1cnn(-c2ccc(F)cc2)c1N)C(F)(F)F)C(=O)c1ccc(F)c(F)c1 (racemic) [Example 21 (racemic), 5-amino-N-(2-{[[(3,4-difiuorophenyl)car-bonyl](ethyl)amino]methyl}-3,3,3-trifluoro-2-hydroxypropyl)-1-(4-fluorophenyl)-1H-pyrazole-4-carboxamide]
GR [1]; [4]
  IC50: < 1000 nM
Glucocorticoid receptor
  IC50: < 1000 nM

## CCN(CC(O)(CNC(=O)c1cnn(-c2ccc(F)cc2)c1N)C(F)(F)F)C(=O)c1cccc(C(C)=O)c1 (racemic) [Example 22 (racemic), N-(2-{[[(3-acetylphenyl)car-bonyl](ethyl)amino]methyl}-3,3,3-trifluoro-2-hydroxypropyl)-5-amino-1-(4-fluorophenyl)-1H-pyrazole-4-carboxamide]
Glucocorticoid receptor
  IC50: < 1000 nM

## CN(CC(O)(CNC(=O)c1cnn(-c2ccc(F)cc2)c1N)C(F)(F)F)C(=O)c1ccccc1 (racemic) [Example 25 (racemic), 5-amino-1-(4-fluorophenyl)-N-(3,3,3-trifluoro-2-hydroxy-2-{[methyl(phenylcarbonyl)amino]methyl}propyl)-1H-pyrazole-4-carboxamide]
GR [1]; [4]
  IC50: < 1000 nM
Glucocorticoid receptor
  IC50: < 1000 nM

## CN(CC(O)(CNC(=O)c1cnn(-c2ccc(F)cc2)c1N)C(F)(F)F)C(=O)c1cccc(C(F)(F)F)c1 (racemic) [Example 26 (racemic), 5-amino-1-(4-fluorophenyl)-N-{3,3,3-trifluoro-2-hydroxy-2-[(methyl{[3-(trifluoromethyl)phenyl]carbonyl}amino)methyl]propyl}-1H-pyrazole-4-carboxamide]
Glucocorticoid receptor
  IC50: < 1000 nM

## CN(CC(O)(CNC(=O)c1cnn(-c2ccc(F)cc2)c1N)C(F)(F)F)C(=O)c1ncccc1F (racemic) [Example 29 (racemic), N-{2-[({[5-amino-1-(4-fluorophenyl)-1H-pyrazol-4-yl]carbonyl}amino)methyl]-3,3,3-trifluoro-2-hydroxypropyl}-3-fluoro-N-methyl-2-pyridinecarboxamide]
GR [1]; [4]
  IC50: < 1000 nM

## CCN(CC(O)(CNC(=O)c1cnn(-c2ccccc2Cl)c1N)C(F)(F)F)C(=O)c1ccccc1 (racemic) [Example 36 (racemic), 5-amino-1-(2-chlorophenyl)-N-(2-{[ethyl(phenylcar-bonyl)amino]methyl}-3,3,3-trifluoro-2-hydroxypropyl)-1H-pyrazole-4-carboxamide]
Glucocorticoid receptor
  IC50: < 1000 nM

## CN(CC(O)(CNC(=O)c1cnn(-c2ccc(F)cc2)c1N)C(F)(F)F)C(=O)c1cccc2cccnc12 (racemic) [Example 42 (racemic), N-{2-[({[5-amino-1-(4-fluorophenyl)-1H-pyrazol-4-yl]carbonyl}amino)methyl]-3,3,3-trifluoro-2-hydroxypropyl}-N-methyl-8-quinolinecarboxamide]
GR [1]; A549 SPAP cells
  Emax: ≥ 40%
GR [1]; [3]
  IC50: < 316 nM
GR [2]
  Emax: ≥ 40%

## Nc1c(C(=O)NCC(O)(CN(CCF)C(=O)c2ccccc2)C(F)(F)F)cnn1-c1ccc(F)cc1 (single isomer, unassigned) [Example 1 Enantiomer 2, 5-Amino-1-(4-fluorophenyl)-N-(3,3,3-trifluoro-2-{[(2-fluoroethyl)(phenylcarbonyl)amino]methyl}-2-hydroxypropyl)-1H-pyrazole-4-carboxamide]
GR [1]; A549 SPAP cells
  Emax: ≥ 40%
GR [1]; [3]
  IC50: < 316 nM
GR [2]
  Emax: ≥ 40%

## CCN(CC(O)(CNC(=O)c1cnn(-c2ccc(F)cc2)c1N)C(F)(F)F)C(=O)c1ccccc1 (single isomer, unassigned) [Example 14 Enantiomer 2, 5-amino-N-(2-{[ethyl(phenylcar-bonyl)amino]methyl}-3,3,3-trifluoro-2-hydroxypropyl)-1-(4-fluorophenyl)-1H-pyrazole-4-carboxamide]
GR [1]; A549 SPAP cells
  Emax: ≥ 40%
GR [1]; [4]
  IC50: < 1000 nM
GR [1]; [3]
  IC50: < 316 nM
GR [2]
  Emax: ≥ 40%
